Data as given in US12440500B2, “Phytoecdysones and the derivatives thereof for use in the treatment of neuromuscular diseases” (BIOPHYTIS, priority 2019, dated 2025).

How the values were obtained:
Format in all cases: in vivo, mouse
[1] = tested on: motor neurons of the lumbar spinal cord of SMA mice; assay: Motor neuron count, location and soma surface (anti-ChAT immunofluorescence, lumbar spinal cord)
Experimental: A quantitative and qualitative study of the populations of motor neurons on thick cross-sections of the lumbar region of the spinal cord (L1-L5) of healthy control mice or SMA treated with the vehicle or with BIO101 for 11 days was carried out via immunofluorescent labeling with Choline AcetylTransferase (ChAT) such as was described hereinabove (Biondi et al., 2008; Boyer et al., 2013). The analysis was then refined by a study of the different motor neuron sub-populations by characterizing their location in the spinal cord (lateral or medial position), as well as the distribution of the size of their soma.
The anesthetized mice underwent an intracardiac infusion with PBS. The spinal cords of the mice were taken, fixed then rinsed. The lumbar region of the spinal cords (L1-L5) was coated in a 4% solution of agarose. 50 μm cross-sections were made using a vibratome over the entire length of the sample. One section every 5 sections of spinal cord was then used for the immunohistochemical analyses. After a saturation with 0.1M glycine, the tissues were then permeabilized, blocked then marked with a goat polyclonal primary antibody anti-choline acetyltransferase (ChAT) ( 1/400^e). The sections are then washed then incubated with the anti-goat polyclonal secondary antibody coupled with Cyanine 3 (1:400^e). The cores are marked using Bisbenzimide ( 1/1,000^e) then the sections are washed again before being mounted with a photobleaching inhibitor of the fluorescent dyes. The specificity of the marking is verified thanks to a control marking carried out in the absence of the primary antibody.
The images were obtained using a camera mounted on a microscope with a magnification of ×200 and coupled to a central processing unit of the microcomputer type comprising in particular a suitable software for image acquisition. All of the counts were carried out using image processing software.
The quantitative analysis was then refined, on the one hand, by studying the different motor neuron sub-populations by analyzing their location in the spinal cord (lateral or medial position), and on the other hand, by studying the distribution of the surface of their soma.

[2] = tested on: SMA mice; assay: Open-field test (spontaneous displacement capacities)
Experimental: Phenotypic analyses of type 2 severe SMA mice treated or not starting from P0 with BIO101 were conducted. Longitudinally every two days, a test was conducted of the motor capacities of the mice from P5 to P9. The inventors evaluated the spontaneous displacement capacities by the open-field test, as well as the muscular fatigability by grip test, such as described hereinabove (Biondi et al., 2008; Branchu et al., 2013; Chali et al., 2016). The device used for the open-field test is different according to the age of the mice. For animals from P0 to P6, it is formed of a 15×15×5 cm plastic box with a grid pattern of the field divided into 25 3 cm×3 cm squares. For animals from P7 to P21, it is formed of a 28×28×5 cm plastic box with a grid pattern of the field divided into 16 7 cm×7 cm squares. The mice were tested individually and the evaluation device was washed after each session. Each mouse initially placed at the center of the field was able to move about freely for 5 minutes. The behavioral measurements are recorded by the experimenter during these 5 minutes and the total number of squares crossed was recorded.

[3] = tested on: SMA mice (FVB/NRj-SmnΔ7/Δ7 huSMN2+/+ 2 copies); assay: Phenotypic analysis: weight and survival of severe SMA mice under daily gavage
Description: A severe SMA mouse model was used on an FVB/NRj gene pool, characterized by the invalidation of the exon 7 of the murine gene Smn and expressing 2 copies of the human transgene SMN2 (Smn^Δ7/Δ7; huSMN2^+/+) (Hsieh et al., 2000). The mice resulting from these crossings having the “FVB/NRj-Smn^Δ7/Δ7 huSMN2^+/+ 2 copies” genotype are described as “SMA”. These mice are characterized by progressive growth failure which is observed starting from 4 days post-natal and have a degeneration of about 50% of the motor neurons of the ventral horn of the spinal cord at the end of life, progressive muscular atrophy and an average lifespan of about 12 days (Hsieh et al., 2000). The mice having the “FVB/NRj-Smn^+/Δ7 huSMN2^++ 2 copies” genotype have no particular phenotype and are used as so-called “control” mice. The mice were treated via daily gavage of a dose of 50 mg/kg, either with the molecule BIO101 complexed to a vehicle (cyclodextrin in the present case), or with the vehicle alone (VH). The weight and the survival were analyzed on a daily basis until P11. In the rest of the description, n corresponds to the size of the sample and p corresponds to the “p value” used to quantify the statistical significance of a result.
The same type II murine model was used to characterize the phenotypic effects of the molecule BIO103 in a severe SMA model. The mice were treated via daily gavage of a dose of 50 mg/kg, either with the molecule BIO103 complexed with the vehicle (cyclodextrin in the present case), or with the vehicle alone (VH). The weight and the survival were analyzed on a daily basis until P11.

[4] = tested on: neuromuscular junctions of muscles soleus, plantaris and tibialis of SMA mice; assay: Morphological study of neuromuscular junction maturation (immunofluorescence)
[5] = tested on: SMA mice; assay: Grip test (muscular fatigability)
Experimental: Phenotypic analyses of type 2 severe SMA mice treated or not starting from P0 with BIO101 were conducted. Longitudinally every two days, a test was conducted of the motor capacities of the mice from P5 to P9. The inventors evaluated the spontaneous displacement capacities by the open-field test, as well as the muscular fatigability by grip test, such as described hereinabove (Biondi et al., 2008; Branchu et al., 2013; Chali et al., 2016).
Indeed, the number of squares that they are able to cross is 10 at P5, 6 at P7 and 8 at P9 versus 17 at P5, 12 at P7 and 24 at P9 in the group of healthy control mice (with p<0.01, p<0.0001 and p<0.001 respectively). […] At P9, this difference is not significant but the treatment with BIO101 tends to have a beneficial effect with mice that are able to cross 11 squares in the group of SMA mice BIO101 in relation to 8 squares in the SMA Vehicle group, p=ns). In order to evaluate muscular fatigability, the gripping force of the hind feet of the mice was tested from P5 to P9 (grip test). The mice are suspended via their hind feet from a thin metal rod suspended in the air, horizontally. The time spent hanging on is recorded. Each mouse was subjected to five successive attempts with a rest period of one minute between two tests. Only the best test was retained for the evaluation of the muscular functions.

CC(C)(O)CC[C@@H](O)[C@](C)(O)[C@H]1CC[C@@]2(O)C3=CC(=O)[C@@H]4C[C@@H](O)[C@@H](O)C[C@]4(C)[C@H]3CC[C@]12C [BIO101, 20-hydroxyecdysone]
loss of motor neurons in relation to healthy control mice ([1]; 11 days of daily treatment (SMA vehicle 25%)): 13% | number of motor neurons per section by semi-ventral spinal cord ([1]; 11 days of daily treatment, versus SMA vehicle, p<0.05): significantly higher | effect on the medial motor neurons ([1]; versus SMA vehicle): no significant effect | number of lateral motor neurons ([1]; versus SMA vehicle): higher | number of small motor neurons with a soma surface less than 300 μm^2 ([1]; versus SMA vehicle, p<0.05): significantly limiting | number of squares crossed (open-field test) ([2]; P5, SMA mice (vehicle 10)): 11 squares | number of squares crossed (open-field test) ([2]; P7, SMA mice (vehicle 6), p<0.05): 10 squares | number of squares crossed (open-field test) ([2]; P9, SMA mice (vehicle 8), p=ns): 11 squares | pre-P11 mortality ([3]; 50 mg/kg daily gavage P0 to P11, versus vehicle, p<0.05): significantly reduces | loss of weight of the animals ([3]; 50 mg/kg daily gavage from birth to P11, versus vehicle): significantly limit | percentage of neuromuscular junctions of the perforated type ([4]; Soleus, treated daily from birth to P10, p<0.05 versus vehicle): 26.5% | percentage of neuromuscular junctions of the perforated type ([4]; Tibialis, treated daily from birth to P10, p<0.05 versus vehicle): 45.7% | percentage of immature plates ([4]; all the muscles tested, treated daily from birth to P10): decrease | percentage of neuromuscular junctions of the perforated type ([4]; muscle plantaris, treated daily from birth to P10, p=ns versus vehicle): 16.3% | hanging time (grip test) ([5]; P5, SMA mice (vehicle 0.2), p<0.05): 2.3 s | hanging time (grip test) ([5]; P7, SMA mice (vehicle 6.2), p=ns): 12.2 s | hanging time (grip test) ([5]; P9, SMA mice (vehicle 5.6), p<0.01): 20.9 s
